This is an account of results in patent US20230398243A1, “THERAPEUTIC, RADIOLABELED NANOPARTICLES AND METHODS OF USE THEREOF” (The General Hospital Corporation, priority 2020, published 2023).

The test system of this assay is MDA-MB-231-luc-D3H2LN cell line. Briefly: tumor cell apoptosis, proliferation, invasion, migration and cell cycle. Conditions: low-dose doxorubicin. Format: cell-based, human. An excerpt: 21.6±0.5-nm dextran coated magnetic nanoparticles were conjugated to 8±0.7 LNA antagomirs targeting miRNA-10b, (Exiqon, Woburn, MA) (FIG. 1A). The MN-anti-miR10b therapeutic was functional in the human lymph-node metastatic MDA-MB-231-luc-D3H2LN cell line (Perkin Elmer, Hopkinton MA). […] In order to assess the therapeutic potential of this methodology, the effect of miR-10b inhibition on tumor cell apoptosis, proliferation, invasion and migration was investigated.
It was also hypothesized that by co-administering a low dose of a cytotoxic chemotherapeutic (e.g., doxorubicin), the effectiveness of the therapeutic could be amplified, leading not only to inhibition of tumor growth, but regression and, possibly, elimination of metastasis. […] Further proof for this hypothesis came from experiments in which we attempted to generate a miR-10b knock-out subline derived from the MDA-MB-231-luc-D3H2LN cell line (FIG. 3A). We observed that within 24 h of transfection with the knock-out vector set (TALEN5 L+R), the cells acquired a spindle-shaped conformation and began to detach. By 72 h of transfection, there were no viable cells (FIG. 3B).

SMILES strings stand for the structures.

Turning to `COc1cccc2c1C(=O)c1c(O)c3c(c(O)c1C2=O)C[C@@](O)(C(=O)CO)C[C@@H]3O[C@H]1C[C@H](N)[C@H](O)[C@H](C)O1` [doxorubicin], the “effect on the cell cycle (flow cytometry)” value is “induced polyploidy and G2/M arrest”.
